# “And” between values parts separate entries of the source, which are not always exact repeats. Equal values may be shown once. Read-outs that look alike come from different tables or passages of the source.
# Assays:
# [1] = test system: S. mansoni newly transformed schistosomula (NTS); assay: Schistosome phenotypic assay; type: cell-based, Schistosoma mansoni; conditions: for Severity score Day 1 / Severity score Day 2 / Severity score Day 3 / Severity score Day 4: 10 μM inhibitor, scale 0 (no effect) to 4 (severe); for Severity score Day 1: 24 h; for Severity score Day 2: 48 h
# Procedure: Newly transformed schistosomula (NTS) of S. mansoni were prepared by mechanically transforming infective larvae (cercariae) as described previously.[70],[71] NTS (200–300 parasites) were incubated in 200 μL of Basch Medium 169 containing 5% FBS, 100 U mL^–1 penicillin, and 100 μg mL^–1 streptomycin at 5% CO2 and 37 °C.[70],[72],[73] Inhibitors were added at the final concentration of 10 μM,[20],[69] and changes in phenotypes were observed every 24 h for up to 4 days. A constrained nomenclature of “descriptors” is used to record the multiple and dynamic changes in movement, shape, and translucence of which the schistosome parasite is capable (Table S3).[70] These descriptors are then converted into an ordinal “severity score” system from 0 (no effect) to 4 (maximum effect), which allows for the relative comparison of compound effects, as described.[74],[75] Images of NTS were captured using a Zeiss Axiovert 40 C inverted microscope (10× objective) and a Zeiss AxioCam MRc digital camera controlled by AxioVision 40 (v. 4.8.1.0) software.
# recombinant SmCB1 = recombinant SmCB1 (Schistosoma mansoni, UniProt Q8MNY2, T185A/T300A); assay: SmCB1 kinetic inhibition assay with fluorogenic substrate Cbz-Phe-Arg-AMC; type: biochemical; conditions: for Ki / SmCB1 inhibition k2nd (second-order rate constant): substrate Cbz-Phe-Arg-AMC; for binding kinetics (shape of progress curves): Figure 2; for SmCB1 inhibition k2nd (second-order rate constant): slow-binding azadipeptide nitriles
# Chain of recombinant SmCB1 (Q8MNY2 87-340 T185A/T300A): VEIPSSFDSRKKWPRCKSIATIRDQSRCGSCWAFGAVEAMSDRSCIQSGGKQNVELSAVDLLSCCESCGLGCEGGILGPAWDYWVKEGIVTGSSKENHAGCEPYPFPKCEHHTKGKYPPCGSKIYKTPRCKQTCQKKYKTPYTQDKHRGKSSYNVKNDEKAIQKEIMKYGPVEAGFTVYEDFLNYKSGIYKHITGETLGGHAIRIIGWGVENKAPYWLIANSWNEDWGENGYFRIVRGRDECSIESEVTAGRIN
# Procedure: Inhibition measurements were performed in triplicates in 96-well microplates (100 μL assay volume) at 37 °C. SmCB1 (20–40 pM) was added to a mixture of the fluorogenic substrate Cbz-Phe-Arg-AMC (20 μM) and an inhibitor (0–100 μM) in 0.1 M sodium acetate, pH 5.5, containing 2.5 mM dithiothreitol and 0.1% PEG 6000. The substrate hydrolysis was monitored in an Infinite M1000 microplate reader (Tecan, Männedorf, Switzerland) at excitation and emission wavelengths of 360 and 465 nm, respectively, for up to 15 and 60 min for fast- and slow-binding inhibitors, respectively. […] For slow-binding inhibitors, an observed first-order rate constant kobs was calculated at each inhibitor concentration by fitting the progress curve to the equation P = vst + (vi – vs)(1 – […])/kobs + d, where P is the product formation, vs is the steady-state velocity, t is the reaction time, vi is the initial velocity, and d is the offset. The inhibition constant Ki′ was determined by nonlinear regression using the equation vs/v0 = 1/(1 + [I]/Ki′). The true inhibition constants Ki were then calculated using the equation Ki = Ki′/(1 + [S]/Km), where [S] is the substrate concentration and Km is the Michaelis constant. The apparent second-order rate constant k2nd′ was determined by fitting to the linear equation kobs = k2nd′[I] + koff, where koff is the first-order rate constants for the dissociation of the enzyme–inhibitor complex and the true constant k2nd was calculated by the correction k2nd = k2nd′(1 + [S]/Km). […] In none of the assay systems did the final concentration of DMSO exceed 1.5%.
# [2] = SmCB1 inhibition Ki, Table S2, carbadipeptide nitriles
# [3] = SmCB1 inhibition Ki, kinetic activity assay, pH 5.5, 37 °C
# [4] = Table S2, carbadipeptide nitriles, read-out: SmCB1 inhibition Ki
smiles,measurement,setting,value
CN(C#N)N(C)C(=O)CNC(=O)OCc1ccccc1 [Compound 1a],Severity score Day 1,[1],0 and 0/0
same,Severity score Day 2,[1],0 and 0/0
same,Severity score Day 3,[1],0
same,Severity score Day 4,[1],0
same,phenotype severity against NTS,"[1]; 10 μM, up to 4 days",ineffective
N#CCNC(=O)CNC(=O)OCc1ccccc1 [Compound 1c],Ki,recombinant SmCB1; [2],> 10 µM
same,Ki,recombinant SmCB1; [3],> 100 µM
same,Severity score Day 1,[1],0
same,Severity score Day 2,[1],0
same,Severity score Day 3,[1],0
same,Severity score Day 4,[1],0
CN(C#N)N(C)C(=O)[C@H](Cc1ccccc1)NC(=O)OCc1ccccc1 [Compound 2a],koff,recombinant SmCB1,0.0003 ± 2e-05 s⁻¹
same,binding kinetics (shape of progress curves),recombinant SmCB1,slow-binding
same,Ki,recombinant SmCB1; [3],0.0194 ± 0.0014 µM
same,SmCB1 inhibition k2nd (second-order rate constant),recombinant SmCB1,15.7 ± 1.1 10^3 M^-1 s^-1
same,Descriptors Day 1 (phenotypic changes),[1]; 10 µM inhibitor,Deg
same,Descriptors Day 2 (phenotypic changes),[1]; 10 µM inhibitor,Deg
same,Severity score Day 1,[1],4 and 4/4
same,Severity score Day 2,[1],4 and 4/4
same,Severity score Day 3,[1],4
same,Severity score Day 4,[1],4
N#CCNC(=O)[C@H](Cc1ccccc1)NC(=O)OCc1ccccc1 [Compound 2c],binding kinetics (shape of progress curves),recombinant SmCB1,fast-binding
same,Ki,recombinant SmCB1; [2],2.92 ± 0.32 µM
same,Ki,recombinant SmCB1; [3],2.92 ± 0.32 µM
same,Severity score Day 1,[1],0
same,Severity score Day 2,[1],0
same,Severity score Day 3,[1],0
same,Severity score Day 4,[1],0
"CC(C)C[C@H](NC(=O)NCc1ccccc1)C(=O)NCC#N [Compound 3c, (S)-2-(3-Benzylureido)-N-(cyanomethyl)-4-methylpentanamide]",Ki,recombinant SmCB1; [2],> 10 µM
same,Ki,recombinant SmCB1; [3],> 100 µM
same,Severity score Day 1,[1],0
same,Severity score Day 2,[1],0
same,Severity score Day 3,[1],0
same,Severity score Day 4,[1],0
CC(C)C[C@H](NC(=O)Nc1ccc(-c2noc(-c3cccs3)n2)cc1)C(=O)N(C)N(C)C#N [Compound 4a],Ki,recombinant SmCB1; [3],0.0367 ± 0.0026 µM
same,SmCB1 inhibition k2nd (second-order rate constant),recombinant SmCB1,13.9 ± 2.9 10^3 M^-1 s^-1
same,Descriptors Day 1 (phenotypic changes),[1]; 10 µM inhibitor,"R, Unc, Dark"
same,Descriptors Day 2 (phenotypic changes),[1]; 10 µM inhibitor,Deg
same,Severity score Day 1,[1],3
same,Severity score Day 2,[1],4
same,Severity score Day 3,[1],4
same,Severity score Day 4,[1],4
CC(C)C[C@H](NC(=O)Nc1ccc(-c2noc(-c3cccs3)n2)cc1)C(=O)NCC#N [Compound 4c],Ki,recombinant SmCB1; [2],6.62 ± 0.91 µM
same,Ki,recombinant SmCB1; [3],6.62 ± 0.91 µM
same,Descriptors Day 1 (phenotypic changes),[1]; 10 µM inhibitor,"R, S"
same,Descriptors Day 2 (phenotypic changes),[1]; 10 µM inhibitor,R
same,Descriptors Day 4 (phenotypic changes),[1]; 10 µM inhibitor,"R, S"
same,Severity score Day 1,[1],2
same,Severity score Day 2,[1],1
same,Severity score Day 3,[1],0
same,Severity score Day 4,[1],2
CC(C)C[C@H](NC(=O)c1ccc(-c2noc(-c3cccs3)n2)cc1)C(=O)NCC#N [Compound 5c],Ki,recombinant SmCB1; [2],1.22 ± 0.2 µM
same,Ki,recombinant SmCB1; [3],1.21 ± 0.205 µM
same,Descriptors Day 2 (phenotypic changes),[1]; 10 µM inhibitor,R
same,Descriptors Day 3 (phenotypic changes),[1]; 10 µM inhibitor,"R, Dark"
same,Descriptors Day 4 (phenotypic changes),[1]; 10 µM inhibitor,Deg
same,Severity score Day 1,[1],0
same,Severity score Day 2,[1],1
same,Severity score Day 3,[1],2
same,Severity score Day 4,[1],4
CC(C)C[C@@H](C(=O)N(C)N(C)C#N)N(C)C(=O)c1ccc(-c2noc(-c3cccs3)n2)cc1 [Compound 6a],Ki,recombinant SmCB1; [3],1.54 ± 0.25 µM
same,decrease in potency versus 5a,recombinant SmCB1; ratio of SmCB1 Ki values,300 fold
same,SmCB1 inhibition k2nd (second-order rate constant),recombinant SmCB1,0.5 ±0.1 10^3 M^-1 s^-1
same,Descriptors Day 1 (phenotypic changes),[1]; 10 µM inhibitor,Deg
same,Descriptors Day 2 (phenotypic changes),[1]; 10 µM inhibitor,Deg
same,Severity score Day 1,[1],4 and 4/4
same,Severity score Day 2,[1],4 and 4/4
same,Severity score Day 3,[1],4
same,Severity score Day 4,[1],4
CC(C)C[C@@H](C(=O)NCC#N)N(C)C(=O)c1ccc(-c2noc(-c3cccs3)n2)cc1 [Compound 6c],Ki,recombinant SmCB1; [2],> 10 µM
same,Ki,recombinant SmCB1; [3],> 100 µM
same,Descriptors Day 4 (phenotypic changes),[1]; 10 µM inhibitor,R
same,Severity score Day 1,[1],0
same,Severity score Day 3,[1],0
CN(C#N)N(C)C(=O)C1(NC(=O)c2ccc(-c3noc(-c4cccs4)n3)cc2)CCCCC1 [Compound 7a],Ki,recombinant SmCB1; [3],0.229 ± 0.007 µM
same,Descriptors Day 1 (phenotypic changes),[1]; 10 µM inhibitor,"R, Unc, Dark"
same,Descriptors Day 2 (phenotypic changes),[1]; 10 µM inhibitor,Deg
same,Severity score Day 1,[1],3
same,Severity score Day 2,[1],4
same,Severity score Day 3,[1],4
same,Severity score Day 4,[1],4
N#CCNC(=O)C1(NC(=O)c2ccc(-c3noc(-c4cccs4)n3)cc2)CCCCC1 [Compound 7c],Ki,recombinant SmCB1; [2],> 10 µM
same,Ki,recombinant SmCB1; [3],> 100 µM
same,Severity score Day 1,[1],0
same,Severity score Day 2,[1],0
same,Severity score Day 3,[1],0
same,Severity score Day 4,[1],0
C[C@@H](C#N)NC(=O)[C@H](Cc1ccccc1)NC(=O)OCc1ccccc1 [Compound 8c],Ki,recombinant SmCB1; [2],> 10 µM
same,Severity score Day 1,[1],0
same,Severity score Day 2,[1],0
same,Severity score Day 3,[1],0
same,Severity score Day 4,[1],0
CC(C)(C)OC(=O)NCC(=O)NCC#N [Gü807],Ki,recombinant SmCB1; [4],> 10 µM
CC(C)(C)OC(=O)N[C@@H](Cc1ccccc1)C(=O)NCC#N [Gü809],Ki,recombinant SmCB1; [4],> 10 µM
CC(C)C[C@H](NC(=O)OC(C)(C)C)C(=O)NCC#N [Gü914],Ki,recombinant SmCB1; [4],> 10 µM
CC(C)(C)OC(=O)N[C@@H](Cc1ccc(O)cc1)C(=O)NCC#N [Gü915],Ki,recombinant SmCB1; [4],> 10 µM
CC(C)(C)OC(=O)N[C@@H](Cc1c[nH]c2ccccc12)C(=O)NCC#N [Gü916],Ki,recombinant SmCB1; [4],> 10 µM
CC(C)C[C@H](NC(=O)OCc1ccccc1)C(=O)NCC#N [Gü928],Ki,recombinant SmCB1; [4],> 10 µM
CC(C)(C)OC(=O)N[C@@H](CC1CCCCC1)C(=O)NCC#N [Gü929],Ki,recombinant SmCB1; [4],> 10 µM
CC(C)(C)OC(=O)N[C@@H](COCc1ccccc1)C(=O)NCC#N [Gü930],Ki,recombinant SmCB1; [4],> 10 µM
CC(C)[C@H](NC(=O)OC(C)(C)C)C(=O)NCC#N [Gü931],Ki,recombinant SmCB1; [4],> 10 µM
CCC(C)C(NC(=O)OC(C)(C)C)C(=O)NCC#N (stereo not shown) [Gü932],Ki,recombinant SmCB1; [4],> 10 µM
C[C@H](NC(=O)OC(C)(C)C)C(=O)NCC#N [Gü933],Ki,recombinant SmCB1; [4],> 10 µM
CSCC[C@H](NC(=O)OC(C)(C)C)C(=O)NCC#N [Gü935],Ki,recombinant SmCB1; [4],> 10 µM
CC(C)(C)OC(=O)N1CCC[C@H]1C(=O)NCC#N [Gü936],Ki,recombinant SmCB1; [4],> 10 µM
CSCC[C@@H](C#N)NC(=O)[C@H](Cc1ccccc1)NC(=O)OC(C)(C)C [Gü968],Ki,recombinant SmCB1; [4],> 10 µM
CC(C)(C)OC(=O)N[C@@H](Cc1ccccc1)C(=O)N[C@H](C#N)CC#N [Gü970],Ki,recombinant SmCB1; [4],> 10 µM
CC(C)(C)OC(=O)N[C@@H](Cc1ccc(Br)cc1)C(=O)NCC#N [Gü1121],Ki,recombinant SmCB1; [4],> 10 µM
CC(C)(C)OC(=O)N[C@@H](Cc1cccc(Br)c1)C(=O)NCC#N [Gü1122],Ki,recombinant SmCB1; [4],> 10 µM
CC(C)(C)OC(=O)N[C@@H](Cc1cccc2ccccc12)C(=O)NCC#N [Gü1127],Ki,recombinant SmCB1; [4],> 10 µM
CC(C)(C)OC(=O)N[C@@H](CCc1ccccc1)C(=O)NCC#N [Gü1129],Ki,recombinant SmCB1; [4],> 10 µM
CC(C)(C)OC(=O)N[C@H](C(=O)NCC#N)c1ccccc1 [Gü1130],Ki,recombinant SmCB1; [4],> 10 µM
CCC[C@H](NC(=O)OC(C)(C)C)C(=O)NCC#N [Gü1131],Ki,recombinant SmCB1; [4],> 10 µM
CC[C@H](NC(=O)OC(C)(C)C)C(=O)NCC#N [Gü1132],Ki,recombinant SmCB1; [4],> 10 µM
CC(C)(C)OC(=O)N[C@H](Cc1ccccc1)C(=O)NCC#N [Gü1133],Ki,recombinant SmCB1; [4],> 10 µM
CC(=O)N[C@@H](Cc1ccccc1)C(=O)NCC#N [Gü1134],Ki,recombinant SmCB1; [4],> 10 µM
N#CCNC(=O)[C@H](Cc1ccccc1)NC(=O)c1ccccc1 [Gü1135],Ki,recombinant SmCB1; [4],> 10 µM
CC(C)(C)OC(=O)N[C@@H](CC1CC1)C(=O)NCC#N [Gü1228],Ki,recombinant SmCB1; [4],> 10 µM
CC(C)(C)OC(=O)N[C@@H](Cc1ccsc1)C(=O)NCC#N [Gü1232],Ki,recombinant SmCB1; [4],> 10 µM
CC(C)(C)OC(=O)N[C@@H](Cc1ccc(F)cc1)C(=O)NCC#N [Gü1237],Ki,recombinant SmCB1; [4],> 10 µM
CC(C)(C)OC(=O)N[C@@H](Cc1cccc(F)c1)C(=O)NCC#N [Gü1239],Ki,recombinant SmCB1; [4],> 10 µM
CC(C)(C)OC(=O)N[C@@H](Cc1ccccc1F)C(=O)NCC#N [Gü1242],Ki,recombinant SmCB1; [4],> 10 µM
CC(C)(C)OC(=O)N[C@@H](Cc1csc2ccccc12)C(=O)NCC#N [Gü1246],Ki,recombinant SmCB1; [4],> 10 µM
N#CCNC(=O)C1(NC(=O)OCc2ccccc2)CCCCC1 [Gü2195],Ki,recombinant SmCB1; [4],> 10 µM
